Data published in US9388444B2, “Use of glucosyltransferase gene” (The United States of America, as represented by the …, priority 2013, dated 2016).

Tests used:
[1] = aqueous solution of sophorolipid; cited from earlier work
Gtf-1 = assay: In vitro HPLC-MS glucosyltransferase activity assay with sonicated extract of recombinant S. cerevisiae [pYES2/NT/gft1]; type: biochemical, C. bombicola; conditions: for effect of lipid stock solvent on enzyme activity: solvent used to prepare 50 mM lipid stock solution; for glucosyltransferase enzyme activity toward lipid substrate (appearance of glucoside product): UDP-glucose as sugar substrate, 30° C., 3 hours, HPLC-MS, product absent with control [pYES2/NT/lacZ] extract
Procedure: An in vitro enzyme activity assay is performed to verify the functional property of Gtf-1 expressed in the recombinant S. cereviciae [pYES2/NT/gft1]. In this plasmid, the expression of gtf-1 is regulated by a yeast GAL1 promoter that is inducible by the addition of galactose (FIG. 1). An HPLC-MS-based method is developed to assay for glucosyltransferase activity in recombinant S. cerevisiae expressing C. bombicola gft-1 gene cloned in the pYES2/NT/gft1 plasmid construct. As control samples, S. cerevisiae transformed with pYES2/NT/gft1CON and pYES2/NT/lacZ are included in the study. The growing and induction of S. cerevisiae cells is performed according to the protocol described in the manual of pYES2/NT Yeast Expression System (Invitrogen, Carlsbad, Calif.). Briefly, cells from long-term (−80° C.) storage stock cultures are streaked on Yeast Extract Peptone Dextrose (YPD) agar solid medium (1% w/v yeast extract, 2% w/v peptone, 2% w/v dextrose (D-(+)glucose), 2% w/v agar) and grown at 30° C. for 1 to 2 days. A single colony is picked to inoculate 5 ml of SC-U+Glu(2%) in a 25-ml Erlenmeyer flask. The culture is grown overnight at 30° C. and 200 rpm. A volume of the overnight culture, which is based on achieving a theoretical absorbance at 600 nm (A600 nm)=0.4 in the fresh culture, is added to 50 ml of SC-U+Raf(2%) medium in a 125-ml Erlenmeyer. After an overnight incubation (30° C., 200 rpm), A600 nm values of the cultures are recorded. Five ml of sterile 20% (w/v) D-(+)-galactose are added to each culture to induce expression of the cloned gene, and the cells are incubated for 4 hours at 30° C., 200 rpm. Cells are then harvested by centrifugation (Sorvall RC-5B Plus centrifuge; 5,000×g; 10 min; 4° C.) (ThermoFisher Scientific, Waltham, Mass.) with the supernatant being decanted. The pelleted cells are resuspended and washed with 5 ml cold water, undergo another centrifugation using same parameters with removal of the supernatant after centrifugation, and are resuspended in a volume of a Breaking Buffer (50 mM sodium phosphate at pH 7.4; 1 mM Na-EDTA; 5% v/v glycerol; 1 mM phenylmethylsulfonylfluoride (PMSF) which is added immediately before use) in 15-mL Corex centrifugation tube to give a theoretical A600 nm of 200. Cell suspension can be stored at −20° C. overnight and still retain glucosyltransferase activity. Cells are broken by sonication (Sonicator model W-385 equipped with a microtip probe; Heat-Systems, Inc., Farmingdale, N.Y.) for 10 to 15 seconds (with 30 seconds sample cooling on ice-water bath) at maximum probe-tolerant power setting. The sonicated cell suspension (SCS) is used in the reaction mixtures to assay for glycosylation activity.
The reaction mixture for glycosylation assay is largely based on that described by Saerens et al. 2011b. The following procedure is used: 10 μl of a 50 mM-lipid substrate stock solution (which is prepared in one of the following solvents: DMF (dimethylformamide), DMSO ([…]), THF (tetrahydrofuran), ethylacetate, or ethanol) and 10 μl of a 50 mM-UDP-glucose solution (Sigma Aldrich, St. Louis, Mo.) are added to 30 μl of 50 mM potassium phosphate buffer (pH 7.5) in a 13×100 mm test tube on ice. 200 μl of the sonicated cell suspension is then added to the mixture of the two substrates. The final reaction mixture (250 μl) is incubated at 30° C. for 3 hours with frequent manual mixing (approximately every 10-15 minutes). The reaction is stopped by the addition of 200 μl of 2N HCl, followed by vigorous vortex mixing for approximately 30 to 60 seconds. The reaction mixture is extracted with 1 to 2 ml 1:1 v/v ethylether/ethylacetate mixture by vigorous vortex mixing. The tube is placed on lab bench undisturbed for phase separation to occur. Using a Hamilton syringe, the organic phase (upper layer) is carefully removed and is placed into a clean test tube (12×75 mm). The solvent is then evaporated by passing a stream of nitrogen gas over the solution, leaving a dry residue. […]

| Compound | glucosyltransferase enzyme activity toward lipid substrate (appearance of glucoside product) (Gtf-1) | other results |
| --- | --- | --- |
| sophorolipid | – | Surface tension [1]: 30-40 mN/m |
| C1CCOC1 [THF, tetrahydrofuran] | – | effect of lipid stock solvent on enzyme activity (Gtf-1): inhibits enzyme activity |
| CC[C@H](/C=C/[C@@H](C)[C@H]1CC[C@H]2[C@@H]3CC=C4C[C@@H](O)CC[C@]4(C)[C@H]3CC[C@]12C)C(C)C [stigmasterol] | give the same results | – |
| CC(C)[C@@H](C)/C=C/[C@@H](C)[C@H]1CC[C@H]2C3=CC=C4C[C@@H](O)CC[C@]4(C)[C@H]3CC[C@]12C [ergosterol] | give the same results | – |
| CC[C@H](CC[C@@H](C)[C@H]1CC[C@H]2[C@@H]3CC=C4C[C@@H](O)CC[C@]4(C)[C@H]3CC[C@]12C)C(C)C [β-sitosterol] | give the same results | – |
| CN(C)C=O [DMF, dimethylformamide] | – | effect of lipid stock solvent on enzyme activity (Gtf-1): without adversely impacting on enzymatic activity |
| 17-hydroxy-oleate [17-OH oleate] | presence of glucosyltransferase enzyme activity is confirmed | – |
| CC(C)CCC[C@@H](C)[C@H]1CC[C@H]2[C@@H]3CC=C4C[C@@H](O)CC[C@]4(C)[C@H]3CC[C@]12C [cholesterol] | presence of glucosyltransferase enzyme activity is confirmed | – |
